Experimental data taken from US5104800A, “One-step cephalosporin C amidase enzyme” (Merck & Co., Inc., priority 1989, dated 1992).

Experiments:
[1] = system: cephalosporin C amidase from Bacillus megaterium (alpha(2) beta(2) oligomer, 722 amino acid primary translation product); assay: Kinetic characterisation of purified cephalosporin C amidase (Km, turnover); format: biochemical
Description: (§1) The amino acid sequence of the cephalosporin C amidase enzyme of the present invention, recited further above, was deduced by DNA sequence analysis of the gene coding for the enzyme, and the accuracy of the results have been verified by sequencing three independent isolates from three different strains of Bacillus megaterium. However, since 100% accuracy cannot be totally assured, it has been considered desirable to also identify the cephalosporin C amidase enzyme of the present invention in terms of a number of physical and chemical attributes which it uniquely has. Purification of the enzyme for which such data has been derived is explained in more detail further below. Those data are set out in the following table:
(§2) Assay of activity: incubate 180 μl enzyme with 20 μl 20 mg/ml cephalosporin C; after 3 hours at 37° determine 7-ACA by HPLC assay
Cultures of B. megaterium were grown as described. The cells were removed from the broth by centrifugation. The broth was brought to 55% saturation with respect to ammonium sulfate and the precipitate removed by centrifugation. The supernatant was then brought to 75% saturated with respect to ammonium sulfate and the cephalosporin C amidase containing precipitate pelleted by centrifugation. […]
2. […] Formation of 7-ACA was monitored by HPLC.

[2] = system: cephalosporin C amidase from Bacillus megaterium (alpha(2) beta(2) oligomer, 722 amino acid primary translation product); assay: Inhibitors of purified cephalosporin C amidase; format: biochemical; settings: for inhibition at 10 mM (potent inhibitors): inhibitor at 10 mM; for inhibition of the enzyme (in words): concentration not given
Description: as §1, §2
Cultures of B. megaterium were grown as described. The cells were removed from the broth by centrifugation. The broth was brought to 55% saturation with respect to ammonium sulfate and the precipitate removed by centrifugation. The supernatant was then brought to 75% saturated with respect to ammonium sulfate and the cephalosporin C amidase containing precipitate pelleted by centrifugation. This pellet was resuspended in 1/10 of the original culture volume of 15% (w/v) ammonium sulfate, 50 mM sodium phosphate, 5% (w/v) glycerol pH 7.5.
The 10× concentrated enzyme was brought from 15% to 18% w/v ammonium sulfate by addition of saturated ammonium sulfate and filtered through a 0.4 micron filter. Four mls of this was injected onto a Synchrome Synchropak propyl column (25 cm×[…]) which was previously equilibrated with 18% (w/v) ammonium sulfate, 50 mM potassium phosphate pH 7.0. The flow rate was 1 ml/min. For ten minutes after injection the mobile phase composition remained unchanged. From 10 to 40 minutes the mobile phase was changed in a linear gradient to 0% ammonium sulfate, 50 mM sodium phosphate pH 7. From 40-50 minutes the mobile phase composition remained unchanged. Two fractions/min. were collected and assayed for cephalosporin C amidase activity. The activity eluted from 22 to 25 minutes.
The five fractions with the most activity were pooled and concentrated by ultrafiltration in a Centricon 30 (Amicon) to about 50 μl. This concentrated enzyme was injected onto a Zorbox GF 250 (DuPont) column ([…]). The column had been equilibrated and was run in 10% (w/v) ammonium sulfate, 50 mM potassium phosphate pH 7.0 at 1 ml/min. Five fractions/min. were collected. All of the cephalosporin C amidase activity was recovered in two fractions at approximately 9 minutes after injection.
1. The substrate stock solution was prepared by dissolving 20 mg of cephalosporin C in 1 ml of water.
2. Cephalosporin C stock solution (20 μl) was added to the recovered enzyme (180 μl) and the mixture was incubated at 37° C. for 3 hours. Formation of 7-ACA was monitored by HPLC.

In the case of `O=C(O)CCCC(=O)Nc1ccc(C(=O)O)cc1` [glutaryl-4-aminobenzoate, reference compound], the “turnover number, fold higher than with cephalosporin C” value ([1]; substrate glutaryl-4-aminobenzoate (GAB) compared with cephalosporin C) is reported as 20 fold.
In the case of `NCC(=O)O` [Glycine], the “inhibition at 10 mM (potent inhibitors)” value [2] is reported as over 90%.
For `CC1(C)S[C@@H]2[C@H](NC(=O)Cc3ccccc3)C(=O)N2[C@H]1C(=O)O` [PenG, penicillin G, reference compound], the “inhibition of the enzyme (in words)” value [2] was “NOT inhibited”.
In the case of `C[C@@H](N)C(=O)O` [D-alanine], the “inhibition at 10 mM (potent inhibitors)” value [2] is reported as over 90%.
`CC(=O)OCC1=C(C(=O)O)N2C(=O)[C@@H](NC(=O)CCC[C@@H](N)C(=O)O)[C@H]2SC1` [cephalosporin C] showed a Km ([1]; substrate cephalosporin C) of 1300 µM.
In the case of `C[C@H](N)C(=O)O` [L-alanine], the “inhibition at 10 mM (potent inhibitors)” value [2] is reported as over 90%.
With `NC(=O)CC[C@H](N)C(=O)O` [Glutamine] the “inhibition at 10 mM (potent inhibitors)” value [2] was over 90%.
For `CC1(C)S[C@@H]2[C@H](N)C(=O)N2[C@H]1C(=O)O` [6-APA], the “inhibition of the enzyme (in words)” value [2] was “NOT inhibited”.
